For the assay, the target named is mouse CALHM1 (Mus musculus, UniProt D3Z291). The following applies: permeant released through the channel; pH 7.4.
mouse CALHM1, sequence (D3Z291 whole entry): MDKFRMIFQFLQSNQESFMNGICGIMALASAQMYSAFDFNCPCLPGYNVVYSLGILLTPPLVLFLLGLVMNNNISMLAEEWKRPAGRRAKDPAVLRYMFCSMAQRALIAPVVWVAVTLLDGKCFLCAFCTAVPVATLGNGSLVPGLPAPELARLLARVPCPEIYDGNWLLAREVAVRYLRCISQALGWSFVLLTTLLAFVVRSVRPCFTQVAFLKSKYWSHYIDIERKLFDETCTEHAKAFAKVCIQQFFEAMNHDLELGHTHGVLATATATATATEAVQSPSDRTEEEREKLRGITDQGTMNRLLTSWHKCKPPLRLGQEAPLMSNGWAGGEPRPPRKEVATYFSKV

On to `Nc1ncnc2c1ncn2[C@@H]1O[C@H](COP(=O)(O)OP(=O)(O)OP(=O)(O)O)[C@@H](O)[C@H]1O` [ATP, adenosine 5′-triphosphate], for which the “luciferin-luciferase ATP release assay, transfected HeLa cells” value is on record as “Expression of mouse CALHM1 conferred ATP release with similar properties”.

The values are drawn from article PMC3600154 (Nature, 2013).
